Test results reported in patent US20240109925A1, “Enhanced Anti-Proliferative and Antitumor Immune Effects of Mitochondria-Targeted Hydroxyurea” (The Medical College of Wisconsin, Inc., priority 2021, published 2024).
Read-outs that look alike come from different tables or passages of the source.

What was measured:
Type in all cases: cell-based
[1] = system: HCT116 human colon cancer cells; assay: Cell proliferation (cell confluence), IncuCyte Live-Cell Analysis system; conditions: for Cell Confluence (%): when control cells reached ~90% confluence, n = 4; for IC50: Homo sapiens, at ~90% confluence of control
Excerpt: FIG. 1. Effects of HU and Mito-HUs on proliferation of HCT116 human colon cancer cells (A) Effects of HU and Mito-HUs on the proliferation of HCT116 cells were monitored in the IncuCyte Live-Cell Analysis system. The IncuCyte Analyzer provides real-time updates on cell confluence, based on segmentation of high definition-phase contrast images. Representative cell images were shown as segmentation mask illustrated in brown when control cells reached 90% confluence (vertical solid black line). (B) The IC50 values were determined at the point at which control cells reached ˜90% confluence (vertical solid black line). Relative cell confluence (control is taken as 100%) is plotted against concentration. Dashed lines represent the fitting curves used to determine the IC50 values as indicated. Data shown are the means & SD.
The following cell lines were obtained from the American Type Culture Collection (Manassas, VA), where they were regularly authenticated: HCT116 (ATCC Cat #CRL-247, human colon cancer cells) and MiaPaCa-2 (ATCC Cat #CRL-1420, human pancreatic cancer cells). All cells were cultured in a humidified incubator at 37° C. and 5% carbon dioxide. HCT116 cells were maintained in RPMI 1640 medium (Thermo Fisher Scientific, Cat #11875), supplemented with 10% fetal bovine serum. MiaPaCa-2 cells were maintained in Dulbecco's Modified Eagle Medium (Thermo Fisher Scientific, Waltham, MA; Cat #11965) supplemented with 10% fetal bovine serum. All cells were stored in liquid nitrogen and used within 20 passages after thawing.
The IncuCyte Live-Cell Analysis system (Essen Bioscience Inc., Ann Arbor, MI) was used to monitor cell proliferation (Cheng et al., 2013, 2016; Boyle et al., 2018). As shown in previous publications (Cheng et al., 2013, 2016), this imaging system is probe-free and noninvasive, and enables continuous monitoring of cell confluence over several days. The increase in the percentage of cell confluence was used as a surrogate marker of cell proliferation. In a 96-well plate, cells were plated at 1,000 cells per well in triplicates and left to adhere overnight. Cells were then treated with HU and Mito-HUs, and the cell confluency was recorded over several days in the IncuCyte Live-Cell Analysis system.

[2] = target: mitochondrial complex I (Homo sapiens, UniProt O75251+O75306+P03886); assay: Complex I-dependent oxygen consumption (OCR), Seahorse XF-96, HCT116 cells; conditions: for effect on complex I-induced oxygen consumption: HCT116, 24 hr; for IC50: mean ± SD, HCT116, 24 hr treatment, read-out: IC50 Complex I (FIG. 2)
Method: (§1) FIG. 2. Effects of HU and Mito-HUs on the oxygen consumption by mitochondrial complexes I and III (A) Dose-dependent effects of HU, Mito10-HU, Mito12-HU, Mito14-HU, Mito16-HU, and Mito20-HU on complex I- and complex III-dependent oxygen consumption were measured in HCT116 cells. HCT116 cells were treated with HU or Mito-HUs as indicated for 24 hr. Mitochondrial complex I activity (left) and complex III activity (right) were monitored by a Seahorse XF-96 analyzer. Either rotenone (complex I inhibitor) or antimycin A (complex III inhibitor) was acutely added and OCR assayed immediately. (B) The mitochondrial complex I (left) and III (right) dependent oxygen consumption (calculated as rotenone or antimycin A inhibitable OCR) are plotted against concentration of HU and Mito-HUs. Dashed lines represent the fitting curves used for determination of the IC50 values. Data shown are the means G SD.
(§2) Mitochondrial oxygen consumption was measured using the Seahorse XF-96 Extracellular Flux Analyzer (Agilent, North Billerica, MA) (Cheng et al., 2013, 2016; Boyle et al., 2018; Weinberg and Chandel, 2015). After cells were treated with HU or Mito-HUs for 24 hr, the OCR-based assessment of mitochondrial complex activities was carried out on acutely permeabilized cells in the presence of different mitochondrial substrates, i.e., pyruvate/malate for complex I and duroquinol for complex III (Cheng et al., 2016, 2019; Salabei et al., 2014; Wheaton et al., 2014). Rotenone, malonate, and antimycin A (Sigma-Aldrich, St. Louis, MO) were used as specific inhibitors of mitochondrial complexes I, II, and III, respectively. Briefly, cells that were intact after treatments were immediately permeabilized using the Seahorse XF Plasma Membrane Permeabilizer (Agilent). The mitochondrial complex I-induced OCR was assayed in mannitol and sucrose buffer (Salabei et al., 2014) containing 10 mM pyruvate and 1.5 mM malate (substrates for complex I) and 10 mM malonate (which inhibits complex II activities). The mitochondrial complex III-driven OCR was assayed in a mannitol and sucrose buffer containing 0.5 mM duroquinol (substrate for complex III) as well as […] and 10 mM malonate (which inhibit both complex I and II activities). The IC50 values were determined as previously reported (Cheng et al., 2019).

[3] = target: T1, mitochondrial complex III (Homo sapiens, UniProt P00156+P47985); assay: Complex III-dependent oxygen consumption (OCR), Seahorse XF-96, HCT116 cells; conditions: for effect on complex III-induced oxygen consumption: HCT116, 24 hr; for IC50: mean ± SD, HCT116, 24 hr treatment, read-out: IC50 Complex III (FIG. 2)
T1 construct: other: mean ± SD; HCT116, 24 hr treatment; Complex III activity (OCR, % of control); other: 0.1 μM, 24 hr, HCT116; n = 4; other: 0.5 μM, 24 hr, HCT116; other: 0.75 μM, 24 hr, HCT116; other: 1 μM, 24 hr, HCT116; Compl
Method: as §1, §2

[4] = HCT-116, HCT116, read-out: IC50 proliferation of HCT116 cells
[5] = HCT-116, mean ± SD, HCT116, read-out: IC50 Cell Proliferation (FIG. 1)

| SMILES | Cell Confluence (%) ([1]; 0.1 μM) | Cell Confluence (%) ([1]; 0.3 μM) | Cell Confluence (%) ([1]; 1 μM) | Cell Confluence (%) ([1]; 3 μM) | Cell Confluence (%) ([1]; 5 μM) | Cell Confluence (%) ([1]; 10 μM) | Cell Confluence (%) ([1]; 12.5 μM) | Cell Confluence (%) ([1]; 15 μM) | Cell Confluence (%) ([1]; 20 μM) | Cell Confluence (%) ([1]; 30 μM) | Cell Confluence (%) ([1]; 100 μM) | inhibition of proliferation of HCT116 cells ([1]; HCT116) | IC50 [1, 4] | IC50 [1, 5] | inhibition of cell proliferation, combination with AZD-3965 ([1]; Mito10-HU (5 μM) together with AZD-3965 (100 μM), HCT-116) | inhibition of cell proliferation, combination with syrosingopine (combination index) ([1]; Mito10-HU (5 μM) together with syrosingopine (7.5 μM), HCT116) | effect on complex I-induced oxygen consumption [2] | IC50 [2] | effect on complex III-induced oxygen consumption [3] | IC50 [3] |
| --- | --- | --- | --- | --- | --- | --- | --- | --- | --- | --- | --- | --- | --- | --- | --- | --- | --- | --- | --- | --- |
| NC(=O)NOCCCCCCCCCC[P+](c1ccccc1)(c1ccccc1)c1ccccc1.O=C([O-])C(F)(F)F [Mito10-HU, 10-[(carbamoylamino)oxy]-decyltriphenylphosphonium trifluoroacetate] | 82.13% | 84.69% | 83.91% | 64.31% | 67.01% | 26.84% | 13.75% | 8.68% | 3.45% | 1.74% | 1.53% | dose-dependently inhibited proliferation | 8 µM | 8.5 ± 0.41 µM | synergistically inhibited | synergistic | potently inhibited | 8.9 ± 1.22 µM | potently inhibited | 21 ± 0.72 µM |
| NC(=O)NOCCCCCCCCCCCCCC[P+](c1ccccc1)(c1ccccc1)c1ccccc1.O=C([O-])C(F)(F)F [Mito14-HU, 14-[(carbamoylamino)oxy]-tetradecyltriphenylphosphonium trifluoroacetate] | – | – | – | – | – | – | – | – | – | – | – | dose-dependently inhibited proliferation | 0.74 µM | 0.9 ± 0.04 µM | – | – | potently inhibited | 1 ± 0.12 µM | potently inhibited | 1.7 ± 0.69 µM |
